Data reported in patent publication US6518243B1, “Desleucyl glycopeptide antibiotics and methods of making same” (Trustees of Princeton University, priority 1999, dated 2003).

Tests used:
S. aureus (ATCC 29213) = assay: Zone of inhibition screen, 96 well agar array format; format: cell-based; set-up: scale not given here
Outline: (§1)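 Panel screening of every compound against several bacterial strains, among them E. faecium ATCC 49624, was done in a 96-well agar array.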

E. faecalis (CL 4877) = assay: as above; format: cell-based; set-up: scale not given here
Outline: as §1

[1] = zone of inhibition relative to 1 mg/ml stock solution of p-chlorobiphenylvancomycin
[2] = zone of inhibition relative to 1 mg/ml p-chlorobiphenylvancomycin

| SMILES | zone score, S. aureus ATCC 29213 (S. aureus (ATCC 29213); [1]) | zone score, E. faecalis CL 4877 (E. faecalis (CL 4877); [1]) | zone score, S. aureus ATCC 29213 (S. aureus (ATCC 29213); [2]) | zone score, E. faecalis CL 4877 (E. faecalis (CL 4877); [2]) |
| --- | --- | --- | --- | --- |
| CC(=O)Nc1ccc(C(=O)NC2C(=O)NC(CC(N)=O)C(=O)NC3C(=O)NC4C(=O)NC(C(=O)NC(C(=O)O)c5cc(O)cc(O)c5-c5cc4ccc5O)C(O)c4ccc(c(Cl)c4)Oc4cc3cc(c4OC3OC(CO)C(O)C(O)C3OC3CC(C)(NCc4ccc(-c5ccc(Cl)cc5)cc4)C(O)C(C)O3)Oc3ccc(cc3Cl)C2O)cc1NC(C)=O (stereo not drawn) [Compound 104] | 2 | 2 |  |  |
| CC1OC(OC2C(Oc3c4cc5cc3Oc3ccc(cc3Cl)C(O)C3NC(=O)C(NC(=O)C5NC(=O)C(CC(N)=O)NC(=O)C(NC(=O)C(N)CCCNC(=N)N)C(O)c5ccc(c(Cl)c5)O4)c4ccc(O)c(c4)-c4c(O)cc(O)cc4C(C(=O)O)NC3=O)OC(CO)C(O)C2O)CC(C)(NCc2ccc(-c3ccc(Cl)cc3)cc2)C1O (stereo not drawn) [Compound 90] | 2 | 2 |  |  |
| CC1OC(OC2C(Oc3c4cc5cc3Oc3ccc(cc3Cl)C(O)C3NC(=O)C(NC(=O)C5NC(=O)C(CC(N)=O)NC(=O)C(NC(=O)CS(=O)(=O)O)C(O)c5ccc(c(Cl)c5)O4)c4ccc(O)c(c4)-c4c(O)cc(O)cc4C(C(=O)O)NC3=O)OC(CO)C(O)C2O)CC(C)(NCc2ccc(-c3ccc(Cl)cc3)cc2)C1O (stereo not drawn) [Compound 205] |  |  | 2 | 2 |
| C[C@H]1O[C@H](O[C@H]2[C@H](Oc3c4cc5cc3Oc3ccc(cc3Cl)[C@@H](O)[C@@H](NC(=O)C(N)CC3CCCCC3)C(=O)N[C@@H](CC(N)=O)C(=O)N[C@H]5C(=O)N[C@H]3C(=O)N[C@H](C(=O)N[C@@H](C(=O)O)c5cc(O)cc(O)c5-c5cc3ccc5O)[C@H](O)c3ccc(c(Cl)c3)O4)O[C@H](CO)[C@@H](O)[C@@H]2O)C[C@@](C)(NCc2ccc(-c3ccc(Cl)cc3)cc2)[C@H]1O (stereo partly drawn) [Compound 4] | 2 | 2 |  |  |
| CC1OC(OC2C(Oc3c4cc5cc3Oc3ccc(cc3Cl)C(O)C3NC(=O)C(NC(=O)C5NC(=O)C(CC(N)=O)NC(=O)C(NC(=O)C=CC(=O)NC(N)=O)C(O)c5ccc(c(Cl)c5)O4)c4ccc(O)c(c4)-c4c(O)cc(O)cc4C(C(=O)O)NC3=O)OC(CO)C(O)C2O)CC(C)(NCc2ccc(-c3ccc(Cl)cc3)cc2)C1O (stereo not drawn) [Compound 189] | 2 | 2 |  |  |
| CC(NC=O)C(=O)NC1C(=O)NC(CC(N)=O)C(=O)NC2C(=O)NC3C(=O)NC(C(=O)NC(C(=O)O)c4cc(O)cc(O)c4-c4cc3ccc4O)C(O)c3ccc(c(Cl)c3)Oc3cc2cc(c3OC2OC(CO)C(O)C(O)C2OC2CC(C)(NCc3ccc(-c4ccc(Cl)cc4)cc3)C(O)C(C)O2)Oc2ccc(cc2Cl)C1O (stereo not drawn) [Compound 194] | 2 | 2 |  |  |
| CC1OC(OC2C(Oc3c4cc5cc3Oc3ccc(cc3Cl)C(O)C3NC(=O)C(NC(=O)C5NC(=O)C(CC(N)=O)NC(=O)C(NC(=O)CNC(=O)CNC(=O)CNC(=O)CNC(=O)OCc5ccccc5)C(O)c5ccc(c(Cl)c5)O4)c4ccc(O)c(c4)-c4c(O)cc(O)cc4C(C(=O)O)NC3=O)OC(CO)C(O)C2O)CC(C)(NCc2ccc(-c3ccc(Cl)cc3)cc2)C1O (stereo not drawn) [Compound 214] |  |  | 2 | 2 |
| C#CCC(NC(C)=O)C(=O)NC1C(=O)NC(CC(N)=O)C(=O)NC2C(=O)NC3C(=O)NC(C(=O)NC(C(=O)O)c4cc(O)cc(O)c4-c4cc3ccc4O)C(O)c3ccc(c(Cl)c3)Oc3cc2cc(c3OC2OC(CO)C(O)C(O)C2OC2CC(C)(NCc3ccc(-c4ccc(Cl)cc4)cc3)C(O)C(C)O2)Oc2ccc(cc2Cl)C1O (mixture of isomers) [Compound 177] | 2 | 2 |  |  |
| CC(NCCCCC(N)C(=O)NC1C(=O)NC(CC(N)=O)C(=O)NC2C(=O)NC3C(=O)NC(C(=O)NC(C(=O)O)c4cc(O)cc(O)c4-c4cc3ccc4O)C(O)c3ccc(c(Cl)c3)Oc3cc2cc(c3OC2OC(CO)C(O)C(O)C2OC2CC(C)(NCc3ccc(-c4ccc(Cl)cc4)cc3)C(O)C(C)O2)Oc2ccc(cc2Cl)C1O)=C1C(=O)CC(C)(C)CC1=O (stereo not drawn) [Compound 39] | 2 | 2 |  |  |
| CC1OC(OC2C(Oc3c4cc5cc3Oc3ccc(cc3Cl)C(O)C3NC(=O)C(NC(=O)C5NC(=O)C(CC(N)=O)NC(=O)C(NC(=O)CNC(=O)CNC(=O)CNC(=O)OCc5ccccc5)C(O)c5ccc(c(Cl)c5)O4)c4ccc(O)c(c4)-c4c(O)cc(O)cc4C(C(=O)O)NC3=O)OC(CO)C(O)C2O)CC(C)(NCc2ccc(-c3ccc(Cl)cc3)cc2)C1O (stereo not drawn) [Compound 215] |  |  | 2 | 2 |
| CC(NC(=O)OC(C)(C)C)C(=O)NCC(=O)NCC(=O)NC1C(=O)NC(CC(N)=O)C(=O)NC2C(=O)NC3C(=O)NC(C(=O)NC(C(=O)O)c4cc(O)cc(O)c4-c4cc3ccc4O)C(O)c3ccc(c(Cl)c3)Oc3cc2cc(c3OC2OC(CO)C(O)C(O)C2OC2CC(C)(NCc3ccc(-c4ccc(Cl)cc4)cc3)C(O)C(C)O2)Oc2ccc(cc2Cl)C1O (stereo not drawn) [Compound 131] | 2 | 2 |  |  |
| CC1OC(OC2C(Oc3c4cc5cc3Oc3ccc(cc3Cl)C(O)C3NC(=O)C(NC(=O)C5NC(=O)C(CC(N)=O)NC(=O)C(NC(=O)c5c[nH]c(=O)[nH]c5=O)C(O)c5ccc(c(Cl)c5)O4)c4ccc(O)c(c4)-c4c(O)cc(O)cc4C(C(=O)O)NC3=O)OC(CO)C(O)C2O)CC(C)(NCc2ccc(-c3ccc(Cl)cc3)cc2)C1O (stereo not drawn) [Compound 208] |  |  | 2 | 2 |
